Measured values: PubChem BioAssay (NCI)
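Following 48 hours of exposure in 96-well plates, responses at five concentrations were used to interpolate endpoints linearly. GI50: concentration for 50% inhibition of growth. At the TGI there is no net growth.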

Columns and labels:
Experiment in all cases: inhibition of tumour cell growth, NCI panel, 48 h
IGROV1 ovarian = test system: IGROV1 ovarian
HCC-2998 colon = test system: HCC-2998 colon
SK-OV-3 ovarian = test system: SK-OV-3 ovarian
NCI-H226 lung = test system: NCI-H226 lung
786-0 renal = test system: 786-0 renal
MOLT-4 leukemia = test system: MOLT-4 leukemia
A498 renal = test system: A498 renal
ACHN renal = test system: ACHN renal
HT29 colon = test system: HT29 colon
CCRF-CEM leukemia = test system: CCRF-CEM leukemia
UACC-257 melanoma = test system: UACC-257 melanoma

## C[C@@H](NC(=O)Nc1cccc(C(=O)Nc2cc(C(C)(C)C)ccc2C(=O)O)n1)c1ccccc1
IGROV1 ovarian
  TGI: > 100 µM
HCC-2998 colon
  TGI: > 100 µM
SK-OV-3 ovarian
  TGI: > 100 µM
NCI-H226 lung
  TGI: > 100 µM
786-0 renal
  TGI: > 100 µM
MOLT-4 leukemia
  TGI: > 100 µM
A498 renal
  TGI: > 100 µM
ACHN renal
  TGI: > 100 µM
HT29 colon
  TGI: > 100 µM

## CC(C(=O)NCNC(=O)c1ccccc1)C(=O)NCc1ccccc1 (stereo not given)
IGROV1 ovarian
  TGI: > 100 µM
CCRF-CEM leukemia
  TGI: > 100 µM
SK-OV-3 ovarian
  TGI: > 100 µM
NCI-H226 lung
  TGI: > 100 µM
786-0 renal
  TGI: > 100 µM
MOLT-4 leukemia
  TGI: > 100 µM
UACC-257 melanoma
  TGI: > 100 µM
ACHN renal
  TGI: > 100 µM
HT29 colon
  TGI: > 100 µM

## CC12CCC(C(=Nc3ccc([N+](=O)[O-])cc3)C1=O)C2(C)C (stereo not given)
IGROV1 ovarian
  TGI: 57.3 µM
HCC-2998 colon
  TGI: 38.2 µM
SK-OV-3 ovarian
  TGI: > 100 µM
NCI-H226 lung
  TGI: > 100 µM
786-0 renal
  TGI: 78.5 µM
A498 renal
  TGI: > 100 µM
UACC-257 melanoma
  TGI: > 100 µM
ACHN renal
  TGI: > 100 µM
HT29 colon
  TGI: > 100 µM

## CC1CC(=O)C(CC(=O)O)[C@H]1C(C(=O)C(=O)Nc1cc(Cl)ccc1Cl)[N+](=O)[O-] (stereo not given in full)
IGROV1 ovarian
  TGI: > 100 µM
CCRF-CEM leukemia
  TGI: > 100 µM
HCC-2998 colon
  TGI: > 100 µM
SK-OV-3 ovarian
  TGI: > 100 µM
NCI-H226 lung
  TGI: > 100 µM
786-0 renal
  TGI: > 100 µM
A498 renal
  TGI: > 100 µM
ACHN renal
  TGI: > 100 µM
HT29 colon
  TGI: > 100 µM

## C/C(=C/C(=O)N(C)c1ccccc1Cl)O[Si](C(C)C)(C(C)C)C(C)C
IGROV1 ovarian
  TGI: 59.7 µM
SK-OV-3 ovarian
  TGI: > 100 µM
NCI-H226 lung
  TGI: 34.5 µM
786-0 renal
  TGI: 33.1 µM
MOLT-4 leukemia
  TGI: > 100 µM
UACC-257 melanoma
  TGI: 66.4 µM
HT29 colon
  TGI: 34 µM

## COc1ccc(C2OC2C(=O)C23CC4CC(CC(C4)C2)C3)cc1 (stereo not given)
IGROV1 ovarian
  TGI: > 100 µM
CCRF-CEM leukemia
  TGI: > 100 µM
HCC-2998 colon
  TGI: > 100 µM
NCI-H226 lung
  TGI: > 100 µM
786-0 renal
  TGI: > 100 µM
MOLT-4 leukemia
  TGI: > 100 µM
A498 renal
  TGI: > 100 µM
UACC-257 melanoma
  TGI: > 100 µM
ACHN renal
  TGI: > 100 µM
HT29 colon
  TGI: > 100 µM

## CCOP(=O)(OCC)/C(F)=C/c1ccc(F)cc1
IGROV1 ovarian
  TGI: > 100 µM
CCRF-CEM leukemia
  TGI: > 100 µM
SK-OV-3 ovarian
  TGI: > 100 µM
786-0 renal
  TGI: > 100 µM
MOLT-4 leukemia
  TGI: > 100 µM
A498 renal
  TGI: > 100 µM
UACC-257 melanoma
  TGI: > 100 µM
ACHN renal
  TGI: > 100 µM
HT29 colon
  TGI: > 100 µM

## CCOC(=O)n1c(=O)nc2c3c(ncn21)Oc1c(c(-c2ccccc2)nn1-c1ccccc1)C3c1ccc(Cl)cc1 (stereo not given)
CCRF-CEM leukemia
  TGI: 2.72 µM
HCC-2998 colon
  TGI: 1.97 µM
SK-OV-3 ovarian
  TGI: 6.47 µM
NCI-H226 lung
  TGI: 2.99 µM
786-0 renal
  TGI: 2.85 µM
A498 renal
  TGI: 3.85 µM
UACC-257 melanoma
  TGI: 3.42 µM
ACHN renal
  TGI: 3.09 µM
HT29 colon
  TGI: 3.12 µM

## COC(=O)[C@@H](N1C(=O)c2ccccc2C1=O)C1(C)CC(Cl)=NO1 (stereo not given in full)
IGROV1 ovarian
  TGI: 58.2 µM
CCRF-CEM leukemia
  TGI: > 100 µM
HCC-2998 colon
  TGI: > 100 µM
SK-OV-3 ovarian
  TGI: > 100 µM
NCI-H226 lung
  TGI: > 100 µM
786-0 renal
  TGI: > 100 µM
A498 renal
  TGI: 99.7 µM
UACC-257 melanoma
  TGI: > 100 µM
ACHN renal
  TGI: > 100 µM
HT29 colon
  TGI: > 100 µM

## COC(=O)c1c(O)ccc2c1c1c(n2CCc2ccccc2)C(=O)c2ccccc2C1
IGROV1 ovarian
  TGI: 46 µM
CCRF-CEM leukemia
  TGI: 60.6 µM
SK-OV-3 ovarian
  TGI: 64.2 µM
NCI-H226 lung
  TGI: 40 µM
786-0 renal
  TGI: 37.9 µM
MOLT-4 leukemia
  TGI: > 100 µM
A498 renal
  TGI: 40.5 µM
UACC-257 melanoma
  TGI: 44 µM
HT29 colon
  TGI: 70.4 µM

## NC(C(=O)O)C(O)c1cnc[nH]1 (stereo not given)
IGROV1 ovarian
  TGI: > 100 µM
CCRF-CEM leukemia
  TGI: > 100 µM
SK-OV-3 ovarian
  TGI: > 100 µM
NCI-H226 lung
  TGI: > 100 µM
786-0 renal
  TGI: > 100 µM
MOLT-4 leukemia
  TGI: > 100 µM
A498 renal
  TGI: > 100 µM
UACC-257 melanoma
  TGI: > 100 µM
ACHN renal
  TGI: > 100 µM
HT29 colon
  TGI: > 100 µM

## COc1ccc2c(c1)SC1=Nc3sc4cc(OC)ccc4[n+]3CN12
IGROV1 ovarian
  TGI: > 100 µM
CCRF-CEM leukemia
  TGI: > 100 µM
SK-OV-3 ovarian
  TGI: > 100 µM
786-0 renal
  TGI: 82.7 µM
MOLT-4 leukemia
  TGI: 25.1 µM
UACC-257 melanoma
  TGI: > 100 µM
ACHN renal
  TGI: > 100 µM
HT29 colon
  TGI: 56.3 µM

## O=c1[nH]nc(Nc2ccc(Cl)cc2)c2nnn(-c3ccc([N+](=O)[O-])cc3)c12
IGROV1 ovarian
  TGI: > 100 µM
CCRF-CEM leukemia
  TGI: 61.7 µM
HCC-2998 colon
  TGI: 64.7 µM
NCI-H226 lung
  TGI: > 100 µM
786-0 renal
  TGI: 35.5 µM
MOLT-4 leukemia
  TGI: 45.2 µM
UACC-257 melanoma
  TGI: > 100 µM
ACHN renal
  TGI: > 100 µM
HT29 colon
  TGI: > 100 µM

## O=C(O)OC12CCCCCC1C(=O)C1CCCCC12 (stereo not given)
CCRF-CEM leukemia
  TGI: > 100 µM
SK-OV-3 ovarian
  TGI: > 100 µM
NCI-H226 lung
  TGI: > 100 µM
786-0 renal
  TGI: > 100 µM
MOLT-4 leukemia
  TGI: > 100 µM
UACC-257 melanoma
  TGI: > 100 µM
ACHN renal
  TGI: > 100 µM
HT29 colon
  TGI: > 100 µM

## O[C@@H]1CCCCN1Cc1cc2cc3c(cc2c2cc(OCc4ccccc4)ccc12)OCO3
IGROV1 ovarian
  GI50: 1.68 µM
  TGI: 3.11 µM
CCRF-CEM leukemia
  GI50: 0.176 µM
  TGI: 4.61 µM
HCC-2998 colon
  GI50: 0.509 µM
  TGI: 1.83 µM
SK-OV-3 ovarian
  GI50: 1.64 µM
  TGI: 3.39 µM
MOLT-4 leukemia
  GI50: 0.666 µM
  TGI: 8.05 µM
A498 renal
  GI50: 1.41 µM
  TGI: 2.75 µM
UACC-257 melanoma
  GI50: 1.86 µM
  TGI: 3.66 µM
ACHN renal
  GI50: 1.47 µM
  TGI: 2.79 µM
HT29 colon
  GI50: 1.03 µM
  TGI: 2.45 µM

## CC(=O)OC(C(=O)NNC(=O)OC(C)(C)C)c1ccccc1 (stereo not given)
IGROV1 ovarian
  TGI: > 100 µM
HCC-2998 colon
  TGI: > 100 µM
SK-OV-3 ovarian
  TGI: > 100 µM
NCI-H226 lung
  TGI: > 100 µM
786-0 renal
  TGI: > 100 µM
MOLT-4 leukemia
  TGI: > 100 µM
ACHN renal
  TGI: > 100 µM
HT29 colon
  TGI: > 100 µM

## CCCCCCCC(=O)N1C2CC3CCC2(CS1(=O)=O)C3(C)C (stereo not given)
IGROV1 ovarian
  TGI: > 100 µM
CCRF-CEM leukemia
  TGI: 44.8 µM
HCC-2998 colon
  TGI: 51.2 µM
SK-OV-3 ovarian
  TGI: > 100 µM
786-0 renal
  TGI: 31.7 µM
MOLT-4 leukemia
  TGI: 35.1 µM
A498 renal
  TGI: > 100 µM
UACC-257 melanoma
  TGI: 68.6 µM
ACHN renal
  TGI: > 100 µM
HT29 colon
  TGI: > 10 µM

## CC(=O)Nc1ccc2c3c(cc(O)c2c1)N(C(=O)CCCCCCC(=O)Nc1ccc2c4c(cc(O)c2c1)N(C(=O)OC(C)(C)C)CC4CCl)CC3CCl (stereo not given)
IGROV1 ovarian
  TGI: > 33.8 µM
CCRF-CEM leukemia
  TGI: 0.0259 µM
HCC-2998 colon
  TGI: 0.238 µM
SK-OV-3 ovarian
  TGI: 23.9 µM
NCI-H226 lung
  TGI: 0.463 µM
786-0 renal
  TGI: 5.55 µM
MOLT-4 leukemia
  TGI: > 100 µM
A498 renal
  TGI: 0.0819 µM
UACC-257 melanoma
  TGI: 0.439 µM
ACHN renal
  TGI: 0.465 µM

## N#CC(C#N)=CNC(=S)Nc1ccc(S(=O)(=O)Nc2nccs2)cc1
IGROV1 ovarian
  TGI: > 100 µM
HCC-2998 colon
  TGI: > 100 µM
SK-OV-3 ovarian
  TGI: > 100 µM
NCI-H226 lung
  TGI: > 100 µM
786-0 renal
  TGI: > 100 µM
MOLT-4 leukemia
  TGI: > 100 µM
A498 renal
  TGI: > 100 µM
UACC-257 melanoma
  TGI: > 100 µM
ACHN renal
  TGI: > 100 µM
HT29 colon
  TGI: > 100 µM

## CN(C)CCC(C#N)(c1ccccc1)c1ccccc1
IGROV1 ovarian
  TGI: > 100 µM
HCC-2998 colon
  TGI: 34.1 µM
SK-OV-3 ovarian
  TGI: > 100 µM
NCI-H226 lung
  TGI: > 100 µM
786-0 renal
  TGI: > 100 µM
A498 renal
  TGI: > 100 µM
UACC-257 melanoma
  TGI: 59.2 µM
ACHN renal
  TGI: > 100 µM
HT29 colon
  TGI: > 100 µM

## CC(=O)OC1=C(c2ccccc2)S(=O)(=O)c2ccccc21
IGROV1 ovarian
  TGI: > 100 µM
CCRF-CEM leukemia
  TGI: > 100 µM
HCC-2998 colon
  TGI: > 100 µM
NCI-H226 lung
  TGI: > 100 µM
786-0 renal
  TGI: > 100 µM
MOLT-4 leukemia
  TGI: > 100 µM
A498 renal
  TGI: > 100 µM
UACC-257 melanoma
  TGI: > 100 µM
ACHN renal
  TGI: > 100 µM
HT29 colon
  TGI: > 100 µM
